Measured values as given in the NIST ThermoML archive (doi:10.1016/j.jct.2011.07.008).

What was measured:
[1] = mn = molality of the nth substance listed, in mol/kg; details: 101 kPa, Liquid; for viscosity: Capillary tube (Ostwald / Ubbelohde) method
[2] = 298.15 K; 101.33 kPa; Liquid; Pycnometric method
[3] = refractive index (Na D-line) (dimensionless); details: 298.15 K; 101.33 kPa; Liquid; Standard Abbe refractometry

O [water] + COCCO
[1], m2 = 0
Details	viscosity [mPa·s]
275.15 K	1.674
283.15 K	1.31

[1], m2 = 0
Details	mass density [kg/m3]
275.15 K, Pycnometric method	999.94
283.15 K, Buoyancy - hydrostatic balance with magnetic suspension - one sinker	999.7

O [water] + COCCOCCO
[1], m2 = 0
Details	viscosity [mPa·s]
275.15 K	1.674
283.15 K	1.31

[1], m2 = 0
Details	mass density [kg/m3]
275.15 K, Pycnometric method	999.94
283.15 K, Buoyancy - hydrostatic balance with magnetic suspension - one sinker	999.7

CCOCCOCCO [3,6-dioxa-1-octanol] + O
viscosity [mPa·s], [1]
Details	275.15 K	283.15 K
m1 = 0.0092	–	1.004
m1 = 0.0108	1.008	–
m1 = 0.019	–	1.008
m1 = 0.0203	1.015	–
m1 = 0.0291	–	1.013
m1 = 0.0306	1.022	–
m1 = 0.0409	1.029	–
m1 = 0.0416	–	1.019
m1 = 0.0482	–	1.023
m1 = 0.0504	1.035	–
m1 = 0.062	–	1.03
m1 = 0.0625	1.043	–
m1 = 0.0687	–	1.034
m1 = 0.0707	1.048	–
m1 = 0.0796	–	1.041
m1 = 0.0809	1.053	–
m1 = 0.0904	1.058	1.047
m1 = 0.091	–	1.047
m1 = 0.0998	–	1.053
m1 = 0.1019	–	1.054
m1 = 0.1025	1.047	–

[1]
Details	mass density [kg/m3]
275.15 K, Pycnometric method, m1 = 0.0108	1000.05
275.15 K, Pycnometric method, m1 = 0.0203	1000.15
275.15 K, Pycnometric method, m1 = 0.0306	1000.23
275.15 K, Pycnometric method, m1 = 0.0409	1000.34
275.15 K, Pycnometric method, m1 = 0.0504	1000.42
275.15 K, Pycnometric method, m1 = 0.0625	1000.52
275.15 K, Pycnometric method, m1 = 0.0707	1000.62
275.15 K, Pycnometric method, m1 = 0.0809	1000.69
275.15 K, Pycnometric method, m1 = 0.0904	1000.79
275.15 K, Pycnometric method, m1 = 0.1025	1000.86
283.15 K, Buoyancy - hydrostatic balance with magnetic suspension - one sinker, m1 = 0.0092	999.77
283.15 K, Buoyancy - hydrostatic balance with magnetic suspension - one sinker, m1 = 0.019	999.8
283.15 K, Buoyancy - hydrostatic balance with magnetic suspension - one sinker, m1 = 0.0291	999.96
283.15 K, Buoyancy - hydrostatic balance with magnetic suspension - one sinker, m1 = 0.0416	1000.08
283.15 K, Buoyancy - hydrostatic balance with magnetic suspension - one sinker, m1 = 0.0482	1000.09
283.15 K, Buoyancy - hydrostatic balance with magnetic suspension - one sinker, m1 = 0.062	1000.22
283.15 K, Buoyancy - hydrostatic balance with magnetic suspension - one sinker, m1 = 0.0687	1000.23
283.15 K, Buoyancy - hydrostatic balance with magnetic suspension - one sinker, m1 = 0.0796	1000.34
283.15 K, Buoyancy - hydrostatic balance with magnetic suspension - one sinker, m1 = 0.0904	1000.41
283.15 K, Buoyancy - hydrostatic balance with magnetic suspension - one sinker, m1 = 0.091	1000.39
283.15 K, Buoyancy - hydrostatic balance with magnetic suspension - one sinker, m1 = 0.0998	1000.48
283.15 K, Buoyancy - hydrostatic balance with magnetic suspension - one sinker, m1 = 0.1019	1000.46

COCCO [2-methoxyethan-1-ol]
Details	mass density [kg/m3]	refractive index
[2]	959.03	–
[3]	–	1.4003

CCOCCO [2-ethoxyethan-1-ol]
Details	mass density [kg/m3]	refractive index
[2]	925.05	–
[3]	–	1.4057

CCOCCO [2-ethoxyethan-1-ol] + O
[1]
Details	viscosity [mPa·s]
275.15 K, m1 = 0.0102	1.005
275.15 K, m1 = 0.0202	1.01
275.15 K, m1 = 0.0294	1.015
275.15 K, m1 = 0.0459	1.025
275.15 K, m1 = 0.0502	1.028
275.15 K, m1 = 0.0602	1.035
275.15 K, m1 = 0.071	1.042
275.15 K, m1 = 0.0818	1.05
275.15 K, m1 = 0.0902	1.057
275.15 K, m1 = 0.1008	1.065
283.15 K, m1 = 0.0067	1.002
283.15 K, m1 = 0.0191	1.006
283.15 K, m1 = 0.0303	1.01
283.15 K, m1 = 0.0392	1.014
283.15 K, m1 = 0.0492	1.018
283.15 K, m1 = 0.0598	1.022
283.15 K, m1 = 0.0682	1.026
283.15 K, m1 = 0.0799	1.032
283.15 K, m1 = 0.0885	1.036
283.15 K, m1 = 0.0906	1.037
283.15 K, m1 = 0.0996	1.042
283.15 K, m1 = 0.1004	1.043

[1]
Details	mass density [kg/m3]
275.15 K, Pycnometric method, m1 = 0.0102	999.95
275.15 K, Pycnometric method, m1 = 0.0202	999.95
275.15 K, Pycnometric method, m1 = 0.0294	999.95
275.15 K, Pycnometric method, m1 = 0.0459	999.96
275.15 K, Pycnometric method, m1 = 0.0502	999.96
275.15 K, Pycnometric method, m1 = 0.0602	999.97
275.15 K, Pycnometric method, m1 = 0.071	1000
275.15 K, Pycnometric method, m1 = 0.0818	1000
275.15 K, Pycnometric method, m1 = 0.0902	1000.01
275.15 K, Pycnometric method, m1 = 0.1008	1000.03
283.15 K, Buoyancy - hydrostatic balance with magnetic suspension - one sinker, m1 = 0.0067	999.7
283.15 K, Buoyancy - hydrostatic balance with magnetic suspension - one sinker, m1 = 0.0191	999.71
283.15 K, Buoyancy - hydrostatic balance with magnetic suspension - one sinker, m1 = 0.0303	999.71
283.15 K, Buoyancy - hydrostatic balance with magnetic suspension - one sinker, m1 = 0.0392	999.74
283.15 K, Buoyancy - hydrostatic balance with magnetic suspension - one sinker, m1 = 0.0492	999.72
283.15 K, Buoyancy - hydrostatic balance with magnetic suspension - one sinker, m1 = 0.0598	999.72
283.15 K, Buoyancy - hydrostatic balance with magnetic suspension - one sinker, m1 = 0.0682	999.73
283.15 K, Buoyancy - hydrostatic balance with magnetic suspension - one sinker, m1 = 0.0799	999.73
283.15 K, Buoyancy - hydrostatic balance with magnetic suspension - one sinker, m1 = 0.0885	999.73
283.15 K, Buoyancy - hydrostatic balance with magnetic suspension - one sinker, m1 = 0.0906	999.73
283.15 K, Buoyancy - hydrostatic balance with magnetic suspension - one sinker, m1 = 0.0996	999.76
283.15 K, Buoyancy - hydrostatic balance with magnetic suspension - one sinker, m1 = 0.1004	999.78
